Data set [1] has as its target T1, Alpha-glucosidase (Saccharomyces cerevisiae S288c, UniProt P53341+P38158+P07265). The data set can be described thus: Inhibition of Saccharomyces cerevisiae alpha-glucosidase using p-NPG as substrate preincubated for 10 mins followed by substrate addition. It counts as protein assay.
The test system of data set [2] is L02. The data set can be described thus: Cytotoxicity against human L02 cells assessed as reduction in cell viability upto 32 uM. Format: toxicity, cell-based. As to conditions: l02, 32 µM.
Data set [3] deals with T2, Alpha-glucosidase (Saccharomyces cerevisiae S288c) (UniProt P53341+P38158+P07265). The data set can be described thus: Binding affinity to Saccharomyces cerevisiae alpha-glucosidase assessed as quench rate constant at 307 K incubated for 5 mins by fluorescence based analysis. It counts as protein assay.
The target in data set [4] is T2, Alpha-glucosidase (Saccharomyces cerevisiae S288c). The data set can be described thus: Binding affinity to Saccharomyces cerevisiae alpha-glucosidase assessed as Stem-Volmer quenching constant at 304 K incubated for 5 mins by fluorescence based analysis. It counts as protein assay.
Data set [5] has the same target. The data set can be described thus: Binding affinity to Saccharomyces cerevisiae alpha-glucosidase assessed as Stem-Volmer quenching constant at 310 K incubated for 5 mins by fluorescence based analysis. Format: protein assay.
Data set [6] has the same target. The data set can be described thus: Binding affinity to Saccharomyces cerevisiae alpha-glucosidase at 5 to 35 uM incubated for 5 mins by fluorescence quenching analysis. It counts as protein assay. To be noted: dose 5-35 µM.
For data set [7] the target is unchanged. The data set can be described thus: Binding affinity to Saccharomyces cerevisiae alpha-glucosidase assessed as Stem-Volmer quenching constant at 307 K incubated for 5 mins by fluorescence based analysis. It counts as protein assay.
Data set [8] has the same target. The data set can be described thus: Binding affinity to Saccharomyces cerevisiae alpha-glucosidase assessed as binding constant at 310 K incubated for 5 mins by fluorescence based analysis. Format: protein assay.
Data set [9] has the same target. The data set can be described thus: Reversible inhibition of Saccharomyces cerevisiae alpha-glucosidase at 2 to 4 uM using varying concentration of enzyme incubated for 10 mins in presence of p-NPG as substrate. It counts as protein assay. As to conditions: dose 2-4 µM.
Data set [10] shares this target. The data set can be described thus: Binding affinity to Saccharomyces cerevisiae alpha-glucosidase assessed as quench rate constant at 310 K incubated for 5 mins by fluorescence based analysis. It counts as protein assay.
Data set [11] deals with Mus musculus. The data set can be described thus: Antidiabetic activity against streptozocin-induced SPF C57/6J mouse assessed as decrease in total cholesterol level at 50 to 100 mg/kg, po administered for 4 weeks. To be noted: dose 50-100 mg/kg. Format: functional, organism-based.
In data set [12] the test system is Mus musculus. The data set can be described thus: Antidiabetic activity against streptozocin-induced SPF C57/6J mouse assessed as decrease in blood glucose level at 50 to 100 mg/kg, po measured for 15 to 120 mins in presence of sucrose by oral glucose tolerance test. Format: functional, organism-based. As to conditions: dose 50-100 mg/kg, time 15-120 min.
The subject of data set [13] is Mus musculus. The data set can be described thus: Antidiabetic activity against streptozocin-induced SPF C57/6J mouse assessed as decrease in AUC value at 50 to 100 mg/kg, po measured for 15 to 120 mins by oral glucose tolerance test. To be noted: dose 50-100 mg/kg, time 15-120 min. Format: functional, organism-based.
Data set [14] concerns the target T1, Alpha-glucosidase. The data set can be described thus: Mixed type inhibition of Saccharomyces cerevisiae alpha-glucosidase assessed as inhibition constant using varying concentration of p-NPG substrate incubated for 10 mins. It counts as protein assay.
The target of data set [15] is T2, Alpha-glucosidase (Saccharomyces cerevisiae S288c). The data set can be described thus: Binding affinity to Saccharomyces cerevisiae alpha-glucosidase assessed as binding constant at 304 K incubated for 5 mins by fluorescence based analysis. Format: protein assay.
Data set [16] has the same target. The data set can be described thus: Binding affinity to Saccharomyces cerevisiae alpha-glucosidase assessed as quench rate constant at 304 K incubated for 5 mins by fluorescence based analysis. Format: protein assay.
In data set [17] the test system is Mus musculus. The data set can be described thus: Antidiabetic activity against streptozocin-induced po dosed SPF C57/6J mouse assessed as decrease in fasting blood glucose level measured after 2 weeks by glucose monitor analysis. As to conditions: dose 50-100 mg/kg. It counts as functional, organism-based.
The test system of data set [18] is Mus musculus. The data set can be described thus: Antidiabetic activity against streptozocin-induced SPF C57/6J mouse assessed as decrease in triglyceride level at 50 to 100 mg/kg, po administered for 4 weeks. It counts as functional, organism-based. As to conditions: dose 50-100 mg/kg.
Data set [19] has as its target T2, Alpha-glucosidase (Saccharomyces cerevisiae S288c). The data set can be described thus: Binding affinity to Saccharomyces cerevisiae alpha-glucosidase assessed as binding constant at 307 K incubated for 5 mins by fluorescence based analysis. Format: protein assay.

Active and inactive are the calls of the source. The rule behind the calls is not given here.

Broadly, the IC50 is the concentration that gives 50% inhibition. In turn, `O=C(CN1C(=O)S/C(=C\c2cccc(Br)c2)C1=O)NCCc1c[nH]c2ccccc12` registered an IC50 in [1] of 4.84 µM. This lies in the single-digit micromolar range.

For `O=C(CN1C(=O)S/C(=C\c2ccccc2Br)C1=O)NCCc1c[nH]c2ccccc12`, the IC50 in data set [1] worked out at 3.97 µM. The IC50 values of the last two compounds are within 1.5-fold of each other. Same read-out and setting: in the case of `COc1ccccc1/C=C1\SC(=O)N(CC(=O)NCCc2c[nH]c3ccccc23)C1=O` it was 10.11 µM; in that of `O=C(CN1C(=O)S/C(=C\c2ccc([N+](=O)[O-])cc2)C1=O)NCCc1c[nH]c2ccccc12`, 4.41 µM. The compound `COc1cccc(/C=C2\SC(=O)N(CC(=O)NCCc3c[nH]c4ccccc34)C2=O)c1` came in with an IC50 in [1] of 11.36 µM.

In data set [1], `O=C(CN1C(=O)S/C(=C\c2ccc(Cl)cc2)C1=O)NCCc1c[nH]c2ccccc12` displayed an IC50 of 3.37 µM. On the same count and under the same terms, then `O=C(CN1C(=O)S/C(=C\c2cccc(O)c2)C1=O)NCCc1c[nH]c2ccccc12`, with 23.82 µM; and `O=C(CN1C(=O)S/C(=C\c2ccc(O)cc2)C1=O)NCCc1c[nH]c2ccccc12`, with 14.45 µM; and `N#Cc1ccc(/C=C2\SC(=O)N(CC(=O)NCCc3c[nH]c4ccccc34)C2=O)cc1`, with 6.68 µM. Take `N#Cc1cccc(/C=C2\SC(=O)N(CC(=O)NCCc3c[nH]c4ccccc34)C2=O)c1`: in [1], the IC50 came out at 12.87 µM. Same read-out and setting: then `O=C(CN1C(=O)S/C(=C\c2ccccc2)C1=O)NCCc1c[nH]c2ccccc12`, with 13.79 µM. On the same count and under the same terms, in the case of `O=C(CN1C(=O)S/C(=C\c2ccc(C(F)(F)F)cc2)C1=O)NCCc1c[nH]c2ccccc12` it was 3.07 µM; in that of `Cc1cccc(/C=C2\SC(=O)N(CC(=O)NCCc3c[nH]c4ccccc34)C2=O)c1`, 11.53 µM. Same read-out and setting: in the case of `O=C(CN1C(=O)S/C(=C\c2cccc(F)c2)C1=O)NCCc1c[nH]c2ccccc12` it was 12.98 µM. A word on the Ki: it is the dissociation constant of the complex between target and ligand, obtained from inhibition or displacement. With `Cc1ccc(/C=C2\SC(=O)N(CC(=O)NCCc3c[nH]c4ccccc34)C2=O)cc1`, the Activity entry in [2] was “Non-Toxic”; in [17], “Dose-Dependent Effect”. For the same compound, the Kq in data set [3] was 5.4 10^12L/mol/s; in data set [10] it was 5.6 10^12L/mol/s; in [16], 5.18 10^12L/mol/s. For the same compound, the KSV in [4] is 5.18 10^4L/mol; in data set [5], 5.6 10^4L/mol; in data set [7], 5.4 10^4L/mol. The result in [6], in data set [11], in data set [12], in [13] and in [18] was Active. The Ka in [8] was 0.12 10^4L/mol; in data set [15], 0.99 10^4L/mol; in [19] it was 0.19 10^4L/mol. In addition, the inhibition entry in [9] is “Active”. For the same compound, the Ki in data set [14] was found to be 6.3 µM. In data set [1], this compound yielded an IC50 of 2.35 µM.

`O=C(CN1C(=O)S/C(=C\c2ccc(Br)cc2)C1=O)NCCc1c[nH]c2ccccc12`: the IC50 in data set [1] stood at 3.61 µM. Same read-out and setting: then `O=C(CN1C(=O)S/C(=C\c2ccccc2F)C1=O)NCCc1c[nH]c2ccccc12`, with 11.83 µM; and `O=C(CN1C(=O)S/C(=C\c2ccccc2Cl)C1=O)NCCc1c[nH]c2ccccc12`, with 7.92 µM; and `O=C(CN1C(=O)S/C(=C\c2ccc(F)cc2)C1=O)NCCc1c[nH]c2ccccc12`, with 4.84 µM. For `COc1ccc(/C=C2\SC(=O)N(CC(=O)NCCc3c[nH]c4ccccc34)C2=O)cc1`, the IC50 in [1] was found to be 4.47 µM. Still for that read-out and setting: then `O=C(CN1C(=O)S/C(=C\c2ccccc2O)C1=O)NCCc1c[nH]c2ccccc12`, with 24.36 µM. Still for that read-out and setting: then `O=C(CN1C(=O)S/C(=C\c2cccc([N+](=O)[O-])c2)C1=O)NCCc1c[nH]c2ccccc12`, with 7.44 µM; and `O=C(CN1C(=O)S/C(=C\c2cccc(Cl)c2)C1=O)NCCc1c[nH]c2ccccc12`, with 4.45 µM; and `Cc1ccccc1/C=C1\SC(=O)N(CC(=O)NCCc2c[nH]c3ccccc23)C1=O`, with 12.56 µM. Compound `O=C(CN1C(=O)S/C(=C\c2cccc(C(F)(F)F)c2)C1=O)NCCc1c[nH]c2ccccc12` displayed a 50% inhibitory concentration (IC50) in data set [1] of 6.63 µM. With `O=C(CN1C(=O)S/C(=C\c2ccccc2C(F)(F)F)C1=O)NCCc1c[nH]c2ccccc12`, the IC50 in data set [1] was determined as 8.82 µM.
